We go through 120 molecules from the SangsterLogP compilation.

Usually logP stands for a log measure of how a compound divides between an organic and an aqueous phase. A lower logP goes with lower lipophilicity. Usually logD stands for lipophilicity at a set pH, counting ionised and neutral species. Higher therefore signals a more lipophilic compound.

The structures appear in SMILES notation.

The first data set can be described thus: method code SF, from Hansch, C. & Leo, A. (1987). Log P database [Dataset]. Pomona College Medicinal Chemistry Project.
Details: not given
With `CN(C)/N=N/c1ccc(C#N)cc1`, the logP stood at 2.35.
`CC(=O)OCC(COC(C)=O)OC(C)=O` gave a logP of 0.25.
`OC(c1ccccc1)C1CCCCN1` (stereo not given) showed a logP of 1.28.
In turn, `CN(C)C(=S)NCc1ccccc1` showed a logP of 1.59.
`N#C/C(=C\c1ccccc1)C(N)=O` displayed a logP of 1.5.
As to `N#Cc1cccc(C(N)=O)c1`, the logP is 0.52.
For the molecule `O=[N+]([O-])c1ccc(C(F)(F)F)cc1`, the logP came to 2.55.
The molecule `CCC1(c2ccccc2)NC(=O)NC1=O` (stereo not given) registered a logP of 1.53.
Molecule `O=C(Oc1ccccc1)Oc1ccccc1` displayed a log partition coefficient (logP) of 3.28.
As for `CNC(=O)ON=CC(C)(C)[N+](=O)[O-]`, the logP was 0.36.
In turn, `N#CN=[N+]([O-])c1cccc(C#N)c1` had a logP of 1.15.
`c1ccc2nc3ccccc3nc2c1` returned a logP of 2.84.
As to `O=[N+]([O-])CCO`, the logP is -0.42.
Molecule `O=Nc1ccc(O)cc1` had a log partition coefficient (logP) of 1.29.
Molecule `O=C(O)COc1ccccc1O` yielded a logP of 0.85.
On the same count and under the same terms, then `CCNP(=O)(OC)Oc1cc(Cl)c(Cl)cc1Cl` (stereo not given), with 3.18.
Molecule `NC(=O)C(Cl)(Cl)Cl` returned a lipophilicity (logP) of 1.04.
The molecule `CC(C)n1cc(C(C)(C)C)nc1SSc1nc(C(C)(C)C)cn1C(C)C` displayed a logP of 4.1.
`CC[C@H]1OC(=O)[C@H](C)[C@@H](O[C@H]2C[C@@](C)(OC)[C@@H](O)[C@H](C)O2)[C@H](C)[C@@H](O[C@@H]2O[C@H](C)C[C@H](NC)[C@H]2O)[C@](C)(O)C[C@@H](C)C(=O)[C@H](C)[C@@H](O)[C@]1(C)O`: the logP came out at 2.21.
For `NC(=O)Nc1ccc(C(O)C(CO)NC(=O)C(Cl)Cl)cc1` (stereo not given), the lipophilicity (logP) is -0.6.
For the molecule `CCC(C)NC(=O)C=Cc1ccc(Cl)cc1` (stereo not given), the logP worked out at 3.37.
The same measure, in the same setting: then `Clc1ccc2[nH]c(CCCCCCc3nc4cc(Cl)ccc4[nH]3)nc2c1`, with 1.38; and `CCOC(=O)[C@H](O)[C@@H](O)C(=O)OCC`, with -0.29; and `COc1cc(OC)cc(OC(=O)CNC(=O)c2ccccc2)c1`, with 2.69.
Same read-out and setting: the result for `COc1cccc(C(=O)N(C)C)c1` reads 1; that for `Oc1cccnc1`, 0.48; that for `CCC(C)NC(=O)/C(Br)=C\c1ccccc1` (stereo not given), 3.56.
`NC(=O)NC1OC(=O)c2ccccc21` (stereo not given) had a logP of 0.49.
`CC(=O)Nc1ccc2c(c1)[nH]c1ccccc12` showed a logP of 3.02.
In the case of `C=C(C)C`, the logP is 2.34.
`CN(C)CCN(C)C`: the lipophilicity (logP) amounted to 0.3.
Take `Cc1nnc2n1-c1sc(Br)cc1C(c1ccccc1Cl)=NC2`: the logP came to 2.79.
Turning to `Brc1cccc(Br)c1`, the logP was determined as 3.75.
`CNP(=O)(OC)Oc1cccc(C(C)(C)C)c1` (stereo not given) had a log partition coefficient (logP) of 2.65.
For the molecule `CC1(C)OC2CC3C4CC(F)C5=CC(=O)C(Cl)=CC5(C)C4(F)C(O)CC3(C)C2(C(=O)CO)O1` (stereo not given), the logP is 2.99.
The molecule `O=c1cc(-c2ccccc2)oc2cc(O)ccc12` came in with a logP of 3.62.
`CC1=Nc2ccc(S(=O)(=O)N(C)C)cc2S(=O)(=O)N1`: the logP came out at 0.32.
As for `COc1ccc(C(C)=O)c(O)c1`, the logP was 1.98.
In turn, `NC(=O)Cc1ccsc1` registered a log partition coefficient (logP) of 0.31.
The molecule `CC1(O)OC(=O)c2ccccc21` (stereo not given) had a logP of 0.81.
On the same count and under the same terms, the result for `O=C(O)COc1ccc(F)c(I)c1` reads 2.42; that for `O=[N+]([O-])c1ccc(OCCn2ccnc2)cc1`, 1.69; that for `CCOC(=O)C(=Cc1ccc(Cl)cc1Cl)C(=O)OCC`, 3.49.
Regarding `COP(=O)(OC)OC`, the logP is -0.52.
With `CN(Cc1ccc(C#N)cc1)/N=N/c1ccc(C(=O)O)cc1`, the logP came to 3.6.
For the molecule `OCCOc1c(Br)cc(Br)cc1Br`, the logP is 3.42.
Same read-out and setting: the result for `Clc1ccc2[nH]c(CCCCc3nc4cc(Cl)ccc4[nH]3)nc2c1` reads 1.85; that for `Nc1ncnc2c1ncn2[C@@H]1O[C@H](CO)[C@@H](O)[C@@H]1O`, -1.11.
Consider `Nc1cccc(Cl)c1`, for which the logP worked out at 1.9.
In turn, `CC(C)c1ccc(C(N)=O)cc1` displayed a logP of 2.14.
On to `COc1cc(C=NO)ccc1OCCOC(=O)c1cccc(Cl)c1`, for which the logP is 3.94.
Same read-out and setting: then `CCN(CC)c1ccc(/N=N/c2ccc(Br)cn2)c(O)c1`, with 4.23; and `O=C(Nc1ccccc1)Nc1ccc(Cl)c(Cl)c1`, with 4.7; and `CC(=O)N[C@@H]1CC(=O)N(c2ccc(Cl)cc2)C1=O`, with 0.75.
Regarding `O=C(O)CONC(=O)c1ccccc1`, the log partition coefficient (logP) was -0.27.
`CCCCC1OC(=O)c2cc(N)ccc21` (stereo not given) registered a logP of 2.86.
In turn, `O=c1cc[nH]c2ccccc12` gave a logP of 0.58.
The molecule `CC1(C)Oc2c(O)cccc2C1=O` showed a logP of 1.87.
The molecule `O=C(O)c1cc(=O)c2cc3c(cc2o1)CCCC3` registered a logP of 3.4.
Take `O=NN(Cc1ccccc1)c1ccccc1`: the log partition coefficient (logP) amounted to 3.38.
Take `O=C1C(N2CCN(CCO)CC2)=C(N2CC2)C(=O)C(N2CCN(CCO)CC2)=C1N1CC1`: the logP is -0.73.
`CC(=O)Nc1ccccc1C(F)(F)F` gave a logP of 1.11.
`NC(=O)Nc1cccc(NC(N)=O)c1`: the logP is 0.58.
Same read-out and setting: then `CC(=O)C(=Cc1cccc(Cl)c1)C(C)=O`, with 2.26.
The molecule `COc1ccc(C=C(C(C)=O)C(C)=O)cc1` came in with a logP of 1.73.
Consider `COP(N)(=O)Oc1cc(Cl)c(Cl)cc1Cl` (stereo not given), for which the logP came out at 2.53.
Still for that read-out and setting: the result for `O=C(Nc1ccc(Cl)c(Cl)c1)C(F)(F)F` reads 3.9; that for `c1ccc(-n2cccc2)cc1`, 3.08.
In the case of `C#CCCC(=O)N(C)c1ccc(S(=O)(=O)N(C)C)cc1`, the logP came out at 0.88.
For the molecule `CCCC=O`, the logP was 0.88.
On the same count and under the same terms, the result for `O=C(Nc1ccccc1)Oc1ccccc1` reads 3.3; that for `CCCCCCCOC(=O)c1ccc(O)cc1`, 4.83.
On the same count and under the same terms, then `CC1=Nc2c([N+](=O)[O-])cc(Cl)cc2S(=O)(=O)N1`, with 0.85; and `CCCCCCCCC1OC(=O)c2ccccc21` (stereo not given), with 3.94; and `CC(=O)Nc1cccc(OC(=O)CNC(=O)c2ccccc2)c1`, with 1.7.
The molecule `COc1cccc(C=C(C(N)=O)C(N)=O)c1` displayed a lipophilicity (logP) of 0.01.
`O=S1(=O)N=C(C2CCCC2)Nc2ccccc21` yielded a logP of 1.83.
As to `COc1cccc(C(N)=O)c1`, the lipophilicity (logP) amounted to 0.85.
In turn, `CNC(=O)C=Cc1ccccc1` gave a logP of 1.81.
The molecule `CCOP(=O)(OCC)Oc1ccc(SC)c(Cl)c1` showed a logP of 3.48.
On to `CCCCCC(C)O` (stereo not given), for which the logP is 2.31.
On the same count and under the same terms, the result for `C[C@@H]1C[C@H]2[C@@H]3CCC4=CC(=O)C=C[C@]4(C)[C@@]3(F)[C@@H](O)C[C@]2(C)[C@@]1(O)C(=O)CO` reads 1.99.
Molecule `C[C@@H]1C[C@H]2[C@@H]3C[C@H](F)C4=CC(=O)C(Cl)=C[C@]4(C)[C@@]3(F)[C@@H](O)C[C@]2(C)[C@@]1(O)C(=O)CO` returned a logP of 2.58.
Take `CCOC(=O)CC(=O)C=Cc1ccccc1C`: the logP came out at 2.66.
Molecule `c1cc2[nH]cnc2cn1` showed a logP of 0.18.
Same read-out and setting: then `ClC(Cl)=C(Cl)Cl`, with 3.4; and `CC(=O)N(c1ccccc1)S(C)(=O)=O`, with 0.29; and `CCCOc1ccccc1`, with 3.18.
Take `N#CN=[N+]([O-])c1cccc(Br)c1`: the logP came to 2.56.
On the same count and under the same terms, the result for `CS(=O)(=O)OCCCCOS(C)(=O)=O` reads -0.52.

Staying with this data set, now noted: pH 1.0.
As to `CC(=O)c1c(O)oc(=O)c(/C(C)=N/c2ccccc2)c1O`, the logD stood at 2.58.
In the case of `O=C(O)COc1ccccc1F`, the logD came out at 1.39.
With `O=C(O)c1ccccc1Oc1ccccc1`, the logD amounted to 3.11.

The same data set, now with this note: pH 2.0.
As for `O=C1CC(=O)NC(=O)N1`, the logD is -1.41.

The same data set, now with this note: pH 3.0.
The molecule `Cc1nnc(SCC2=C(C(=O)O)N3C(=O)C(NC(=O)Cc4cccs4)C3SC2)s1` (stereo not given) gave a logD of 0.67.
Turning to `Cn1c(SCC2=C(C(=O)O)N3C(=O)C(NC(=O)Cc4cccs4)C3SC2)nnc(O)c1=O` (stereo not given), the logD was -0.52.

Staying with this data set, now noted: pH 4.6.
`CCN(CC)/N=N/c1nc[nH]c1C(N)=O` yielded a logD of 0.78.

Staying with this data set, now noted: pH 5.4.
In turn, `O=C(c1ccccc1)c1cccc(NS(=O)(=O)C(F)F)c1` yielded a logD of 2.86.

Staying with this data set, now noted: pH 6.4.
The molecule `Oc1ccc(Nc2ccccc2)cc1` gave a pH-dependent lipophilicity (logD) of 2.82.

The data set is the same for the next values; noted with them: pH 6.6.
`CON=C(C(=O)NC1C(=O)N2C(C(=O)OCOC(=O)C(C)(C)C)=C(CSc3nnnn3C)CSC12)c1csc(N)n1` (stereo not given): the logD is 1.74.

The data set is the same for the next values; noted with them: pH 6.8.
`CC(=O)OCOC(=O)C1=C(CSC2(C)N=NN=N2)CSC2C(NC(=O)C(O)c3ccccc3)C(=O)N12` (stereo not given) displayed a logD of 0.75.

Staying with this data set, now noted: pH 7.0.
`CC(=O)Nc1cccc(OC(C)=O)c1` gave a logD of 1.03.
With `COc1cccc(S(C)(=O)=O)c1`, the logD came out at 0.86.
On to `CS(=O)(=O)c1ccc(Cl)cc1`, for which the logD is 1.06.

The same data set, now with this note: pH 7.4.
Take `Cc1c(N(C)C)c(=O)n(-c2ccccc2)c(=O)n1CCO`: the logD worked out at 0.85.
In the case of `COc1ccc2c(c1O)-c1cccc3c1C(C2)N(CCO)CC3` (stereo not given), the pH-dependent lipophilicity (logD) was found to be 2.43.
For the molecule `CCN(CC)c1c(C)n(-c2ccccc2)c(=O)n(C)c1=O`, the logD was 2.19.
For `CC(C)COCC1CNc2nc(N)[nH]c(=O)c2N1` (stereo not given), the logD was 0.45.
In turn, `C=CCN(CC=C)c1c(C)n(-c2ccccc2)c(=O)n(C)c1=O` showed a logD of 2.59.
Same read-out and setting: the result for `CCn1c(C)c(N(C)C)c(=O)n(-c2ccccc2)c1=O` reads 1.8; that for `OC[C@H]1O[C@@H](n2cnc3c(=S)nc[nH]c32)[C@H](O)[C@@H]1O`, -0.6.
Turning to `CC(=O)NN=CCCc1ccccc1`, the logD was determined as 1.8.
As to `C#CCN(C)/N=N/c1nc[nH]c1C(N)=O`, the pH-dependent lipophilicity (logD) is 0.33.
On the same count and under the same terms, the result for `Cc1c(N2CCOCC2)c(=O)n(C)c(=O)n1C1CCCCC1` reads 2.39; that for `CC(CN1CC(=O)NC(=O)C1)N1CC(=O)NC(=O)C1` (stereo not given), -1.74.

Still in this data set, the particulars now being: pH 10.8.
As for `CNC(=S)NCCSCc1nc[nH]c1C`, the pH-dependent lipophilicity (logD) came to 0.59.

Still in this data set, the particulars now being: pH 11.0.
Turning to `CN(C)CCc1cccnc1`, the logD is 0.82.

Staying with this data set, now noted: pH 13.0.
For `CNCc1ccccc1`, the logD was found to be 1.52.
Same read-out and setting: then `COC(OC)(OC)c1ccccc1`, with 2.27.
For `CN(Cc1ccccc1)c1ccccc1`, the logD was 4.22.
